Data from the METLIN SMRT retention time set (Domingo-Almenara et al. 2019).

Test: gradient 5% acetonitrile 3 min, to 50% in 2 min, to 85% in 15 min, held 3 min, 100 µL/min
Conditions: column: Zorbax Extend-C18 2.1 x 50 mm; eluents: water / acetonitrile, 0.1% formic acid
Summary of the method: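 Retention times of pure standards were taken from adduct peaks that were selected by computer and manually inspected. Over 3 months, mixtures of ~100 molecules were run by HPLC–quadrupole time-of-flight mass spectrometry in positive and negative ionization mode. The Zorbax Extend-C18 column (2.1 × 50 mm, 1.8 μm) ran at 100 μL/min in water and acetonitrile, each containing 0.1% formic acid, with 40 μL dead volume and 900 μL dwell volume.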

| Compound | RP-LC retention time [s] |
| --- | --- |
| Cc1nnc(-c2ccc3ccn(CC(=O)NCc4ccc(N(C)C)cc4)c3c2)o1 | 632 |
| Cn1cnc2c(C(=O)Nc3cccc(C(F)(F)F)c3)nn(-c3ccccc3)c2c1=O | 970 |
| CN1C(=O)c2cc(C(=O)NCc3ccccc3F)nn2CC1(C)C(=O)NC1CCCCCC1 (stereo unspecified) | 839 |
| CCN1CCN(c2cc(-c3nc(-c4ccc(Cl)cc4)no3)c3ccccc3n2)CC1 | 911 |
| COC(=O)c1cccc(NC(=O)CSc2nccc(N3CCN(c4ccccc4OC)CC3)n2)c1 | 695 |
| O=C(Nc1cccnc1N1CCOCC1)C1CC1 | 576 |
| CC(C)Oc1ccc(-c2noc(Cn3nc(-c4ccccc4)ccc3=O)n2)cc1 | 732 |
| Cc1ccc(NC(=O)CN2CCc3[nH]c4c(C)cc(F)cc4c(=O)c3C2)c(Cl)c1 | 665 |
| COC(=O)c1c(C)[nH]c(C(=O)N2CCC(CC(=O)N3CCCCCC3)CC2)c1C | 715 |
| COc1ccc(OC)c(CNC(=O)Cc2nnc(-c3cnccn3)o2)c1 | 616 |
| CCCc1noc(-c2ccnc(-n3ncc(C(=O)NC4CCCC4)c3C)c2)n1 | 640 |
| O=C(c1csc(-c2cnccn2)n1)N1CCN(c2ccccc2Cl)CC1 | 866 |
| CCCOc1ccc(CN2C[C@@H](CO)[C@H](N(C)C)C2)cc1OC | 551 |
| CC(C)N1C(=O)c2cccnc2Sc2cc(NC(=O)C3CCCC3)ccc21 | 860 |
| Cc1nc(-c2cccc(C(=O)N3CCN(c4nc5cccnc5o4)CC3)c2)no1 | 688 |
| O=C(CCc1nc(C2=CCN(Cc3ccc(Cl)cc3)CC2)no1)NCc1cccs1 | 688 |
| CC(C)Cc1ccc(S(=O)(=O)N(C)C2CCc3nn(CC4CC4)c(=O)n3CC2)cc1 (stereo unspecified) | 914 |
| COc1ccc(C(=O)NC2CCN(c3cc(C)cc(C)c3)C2=O)cc1 (stereo unspecified) | 878 |
| CCc1nccn1Cc1nc(-c2cc(OC)c(OC)c(OC)c2)no1 | 621 |
| Cc1ccc(NC(=O)CN2C(=O)CCc3cc(S(=O)(=O)N4CCCCC4C)ccc32)cc1F (stereo unspecified) | 1010 |
| CCc1nc(N)n(CC(=O)NCc2ccc(F)cc2F)c(=O)c1C | 632 |
| COc1ccccc1N1CCN(c2cc(SCC(=O)NCc3ccco3)ncn2)CC1 | 777 |

| Compound | RP-LC retention time [s] |
| --- | --- |
| O=C(NCc1ccccc1Cl)c1nnc(-c2ccc(S(=O)(=O)N3CCCC3)cc2)o1 | 934 |
| O=C(CCCOc1ccc(Cl)cc1Cl)Nc1nc(-c2ccccc2)cs1 | 1210 |
| CCc1ccc(NC(=O)C(C)Oc2cc(C(F)(F)F)c3c(C)nn(C)c3n2)cc1 (stereo unspecified) | 1030 |
| O=C(Cn1nc2c(Oc3ccc(Cl)cc3)nccn2c1=O)NC1CCCC1 | 810 |
| O=C(NCc1ccco1)c1ccc(NC(=O)C2CC2)cc1N1CCCCCC1 | 584 |
| COc1ccc(CNC(=O)C2CCN(S(=O)(=O)c3cc(-c4noc(C)n4)cs3)CC2)cc1 | 831 |
| O=C(CCC1CCCN(c2cc(NC3CC3)ncn2)C1)NCc1ccccn1 (stereo unspecified) | 558 |
| Cn1nc2n(c1=O)CCN(Cc1ccc(C(C)(C)C)cc1)C2 | 707 |
| CC(C)(C)NC(=O)N1CCCN(S(C)(=O)=O)CC1 | 614 |
| CCC(=O)N1CCc2sc(C(=O)N3CCN(c4ccccn4)CC3)cc2C1 | 582 |
| Cc1cc(C)c(S(=O)(=O)Nc2ccc3nc(N4CCN(C)CC4)cc(C(=O)O)c3c2)cc1C | 611 |
| Cc1ccccc1CNC(=O)c1cn(-c2ccc(-c3nc(C4CC4)no3)cn2)cn1 | 973 |
| Cc1cc(=O)n(CC(=O)Nc2cccc(Cl)c2)c(-c2ccccc2)n1 | 1080 |
| COc1ccc(N2CC(c3noc(-c4ccccc4OC)n3)CC2=O)cc1 (stereo unspecified) | 858 |
| COc1ccc(-c2nn(Cc3ccccc3F)c(=O)c3nc(C)sc23)cc1OC | 808 |
| CC1CCN(S(=O)(=O)c2ccc(-c3nnc(C(=O)NC4CC4)o3)cc2)CC1 | 876 |
| O=C(C1CCCO1)N1CCC(OCc2nc(-c3ccccc3)no2)CC1 (stereo unspecified) | 778 |
| CN1CCN(CCNC(=O)c2ccc3c(c2)N(C)C(=O)C2CCCCN32)CC1 (stereo unspecified) | 572 |
| COc1ccc(-c2nsc(SCC(=O)Nc3cc(C)on3)n2)cc1 | 860 |
| Cn1ccc2cc(S(=O)(=O)N3CCC(C(=O)NCc4ccccn4)CC3)ccc21 | 641 |
| CCOCCCNC(=O)c1nc(Nc2ccc(C)cc2)c2ccccc2n1 | 746 |
| Cc1sc(NC(=O)Cc2nn(C)c(=O)c3ccccc23)nc1-c1ccc(Cl)cc1 | 982 |

| Compound | RP-LC retention time [s] |
| --- | --- |
| CC(=O)N1c2ccc(S(=O)(=O)N3CCOCC3)cc2CC1C(=O)N1CCN(c2ccccc2)CC1 (stereo unspecified) | 776 |
| COc1cccc(N2CCN(Cc3nc(-c4ccc(N5CCC(C)CC5)nc4)no3)CC2)c1 | 1020 |
| COc1ccc(Cl)c2c(=O)c3c([nH]c12)CCN(CC(=O)Nc1cccc(Cl)c1)C3 | 645 |
| COC(=O)C1=C(C)NC2=C(C(=O)c3ccccc32)C1c1cccc(OC)c1 (stereo unspecified) | 917 |
| Cc1ccc(NC(=O)C2CCCN2S(=O)(=O)c2cc3c(cc2C)NC(=O)C(C)O3)cc1Cl (stereo unspecified) | 892 |
| CCCN1C(=O)COc2ccc(-c3noc(C4CC(=O)N(c5ccc(OC)cc5)C4)n3)cc21 (stereo unspecified) | 951 |
| CCNC(=O)C1CCN(c2cc(SCC(=O)Nc3ccc(C(=O)OCC)cc3)ncn2)CC1 | 725 |
| CCc1cc(Br)ccc1NC(=O)C1CCCN(c2nc3ccccc3nc2OC)C1 (stereo unspecified) | 1300 |
| COc1ccc(Cc2nc(-c3cccc(-c4ccn[nH]4)c3)no2)cc1Cl | 963 |
| COc1ccc(Cl)cc1NC(=O)CSc1ccc(-n2ccnc2)nn1 | 613 |
| CCC(C)NC(=O)N1CCC2(CC1)Nc1cc(F)ccc1-n1cccc12 (stereo unspecified) | 954 |
| COC(=O)c1ccc2c(=O)n(CCc3ccccc3)c(N3CCC(C(N)=O)CC3)nc2c1 | 774 |
| CC(=O)c1sc(NC(=O)c2cc(Cl)ccc2Cl)nc1C | 817 |
| O=C(NCc1ccc(F)cc1)N1CCN(c2nc3cccnc3n(Cc3ccccc3)c2=O)CC1 | 1020 |
| Cc1c(Cl)cccc1NC(=O)C1CCCN(c2nnc(C)c3c(C)n(-c4ccccc4)nc23)C1 (stereo unspecified) | 784 |
| CC(C)(C)c1cc(NCc2ccccn2)n2ncc(-c3ccc(Cl)cc3)c2n1 | 841 |
| Cc1cccc(NC(=O)NCC(c2cccnc2)c2c[nH]c3ccccc23)c1C (stereo unspecified) | 661 |
| COc1ccc(-c2csc(N3CCN(c4ccc([N+](=O)[O-])c(-n5nc(C)cc5C)c4)CC3)n2)cc1 | 1150 |
| CCCN1CCN(c2cc(C(=O)O)c3cc(NS(=O)(=O)c4ccc(OCC)cc4)ccc3n2)CC1 | 624 |
| NS(=O)(=O)c1ccc(CCNC(=O)Cn2nc3c(N4CCOCC4)nccn3c2=O)cc1 | 613 |
| O=C(Cn1nc2c3sc(N4CCCCC4)nc3ncn2c1=O)Nc1ccccc1 | 768 |
| CCC(C)NC(=O)c1cc2n(n1)CCCN(Cc1cccc(C)c1)C2=O (stereo unspecified) | 851 |

| Compound | RP-LC retention time [s] |
| --- | --- |
| Nc1c(C(=O)Nc2ccc([N+](=O)[O-])cc2)oc2ccccc12 | 880 |
| CCC(CC)C(=O)N1CCN(c2nc3cccnc3n(CC)c2=O)CC1 | 942 |
| CCCN1CCN(C(=O)C2CCCN(S(=O)(=O)c3cc(-c4noc(CC)n4)cs3)C2)CC1 (stereo unspecified) | 665 |
| O=S(=O)(Nc1cccn2ncnc12)c1ccccc1Cl | 742 |
| COc1ccccc1CNc1c(-c2cc(OC)c(OC)c(OC)c2)nc2ncccn12 | 714 |
| Cc1ccccc1CNS(=O)(=O)c1ccc(-c2c(C)noc2C)cc1 | 959 |
| CCn1cc(-c2nc(CC(=O)Nc3cc(Cl)ccc3OC)cs2)c2cccnc21 | 1130 |
| O=C(Cc1nnc2c(-c3nc(C4CC4)no3)cccn12)NC1CCCCC1 | 685 |
| CCn1cc(-c2ccc(Cl)cc2)cc1C(=O)N1CCC(N2CCCCC2)CC1 | 713 |
| O=C(NCc1ccc(F)cc1)C1CCCN(c2ccc(-c3ccco3)nn2)C1 (stereo unspecified) | 622 |
| O=C(NC1CC1)c1ccc(OCC2CCN(C(=O)C3(c4ccccc4)CC3)CC2)cc1 | 859 |
| CC(C)n1cc(C2=CCN(S(=O)(=O)Cc3cccc(Cl)c3)CC2)c2cccnc21 | 1130 |
| O=C(Nc1ccc2c(c1)OCCO2)C1CCCN(c2nnc3c(Cl)cccn23)C1 (stereo unspecified) | 709 |
| CNC(=O)C1CCN(c2nc3ncn(CC(=O)Nc4c(C)cc(C)cc4C)c(=O)c3s2)CC1 | 646 |
| COc1ccc(-c2ccc(=O)n(Cc3nc(-c4ccc(F)cc4)no3)n2)cc1OC | 892 |
| CCCn1c(=O)sc2cc(S(=O)(=O)N3CCC(C(=O)NC4CCC(C)CC4)CC3)ccc21 (stereo unspecified) | 1030 |
| CCC(C)NC(=O)N1CC(n2cc(C(=O)N(C)CCOC)nn2)C1 (stereo unspecified) | 620 |
| CCc1ccc(NS(=O)(=O)c2cc3n(c2)CCCNC3=O)cc1 | 691 |
| Cc1ccc2c(c1)N(CCCC(=O)N1CCN(c3cc(=O)n(C)c(=O)n3C)CC1)C(=O)CO2 | 700 |
| Cc1ccc(-c2[nH]c3[nH]c(=O)[nH]c(=O)c3c2C2C(=O)N(C)c3ccccc32)cc1 (stereo unspecified) | 696 |
